These results are taken from patent US20060211651A1, “Persulfated oligosaccharide acting on selectins and chemokine” (Taisho Pharmaceutical Co., Ltd., priority 2002, published 2006).

Assay [1] has as its target secondary lymphoid tissue chemokine. Kind of assay: BIAcore surface plasmon resonance, immobilized glycosaminoglycan vs SLC. The settings on record: for pKd / koff / kon: GAG immobilized, 25° C. The format is binding. The procedure:
(§1) Affinity kinetics of the interaction between various CS/DS chains and each of L-selectin, P-selectin, CD44 and chemokine were examined by surface plasmon resonance using BIAcore™ biosensor [manufactured by BIAcore AB].
(§2) All experiments were performed at 25° C. At stages of washing and dissociation, buffer C (20 mM HEPES-NaOH, 0.15M NaCl, 1 mM CaCl2, 1 mM MgCl2, pH6.8) was used as a running buffer.
(§3) First, about 1.8 to 2.0 kiloresonance unit (1 kiloresonance unit=1 ng/mm^2) of streptavidin were covalently immobilized onto B1 sensor chip via a primary amine group using an amine coupling kit [manufactured by Amercham-Bioscience] according to the instruction provided by the manufacturer. The remaining activated groups were blocked with 150 μl of 1M ethanolamine-HCl (pH8.5). Then, each glycosaminoglycan which had been biotinylated at a reducing end was injected to a sensor tip surface by using EZ-link™ biotin-LC-hydrazide [manufactured by Pierce] so as to obtain about 150 resonance unit of an immobilization level, according to the method of Sadir et al. [J. Biol. Chem., 276, 8288-8296 (2001); all teachings of which are hereby incorporated by reference].
(§4) Binding assay was performed by injecting continuously each of various concentrations of secondary lymphoid tissue chemokine, γ-interferon inducible protein-10, stromal cell-derived factor-1β, monomeric L-selectin [manufactured by Genzyme-Techne], monomeric P-selectin [manufactured by Genzyme-Techne] and monomeric CD44, to a glycosaminoglycan-coupled sensor tip at a flow rate of 30 μl/min for 0 to 90 seconds, and then injecting a running buffer thereto. A response in resonance unit was recorded as a function of a time.
(§5) A sensor tip surface was regenerated with 300 μl of 1 M NaCl when chemokine or CD44 was used, or regenerated with 300 μl of 1 M NaCl, and additional 100 μl of 50 mM EDTA (pH8.0), when selectin was used. As a result of regeneration of a sensor tip surface, a remarkable change in a baseline was not observed.
(§6) An affinity kinetic parameter was determined by BIAevaluation 3.0 software [manufactured by Pharmacia Biosensor] using a single site binding model. […] In FIG. 6 and Table 3, SLC denotes secondary lymphoid tissue chemokin, IP-10 denotes γ-interferon inducible protein-10, SDF-1β denotes stromal cell-derived factor-1β, CS E denotes chondroitin sulfate E, and CS A denotes chondroitin sulfate A. In addition, in Table 3, Kd value for the interaction between monomeric CD44 and chondroitin sulfate E is a value calculated from a binding amount at equilibrium, and Kd value of the interaction between CD44 and hyaluronic acid is a value calculated using CD44-Ig.

The target of assay [2] is T1, γ-interferon inducible protein-10 (Homo sapiens, UniProt P02778). Put plainly: BIAcore surface plasmon resonance, immobilized glycosaminoglycan vs IP-10. The class given is binding. The settings on record: for pKd / koff / kon: GAG immobilized, 25° C. The procedure:
as §1, §2, §3, §4, §5, §6

Assay [3] concerns the target T1, γ-interferon inducible protein-10. Put plainly: ELISA, biotinylated versican binding to IP-10 in presence of glycosaminoglycan. Conditions: 100 μg/ml glycosaminoglycan; FIG. 5. The procedure: (§7) A well of a 96 well flat bottom microtiter plate was coated with BSA (5 μg/ml), anti-versican monoclonal antibody 2B1 (5 μg/ml), CD44-Ig (7 μg/ml), L-selectin-Ig (3 μg/ml), P-selectin-Ig (3 μg/ml) or chemokine (1 μg/ml), and then blocked with a phosphate buffered physiological saline containing 3% by weight of BSA. As the above chemokine, secondary lymphoid tissue chemokine, γ-interferon inducible protein-10, platelet factor 4, stromal cell-derived factor-1β [manufactured by Pepro Tech] and stromal cell-derived factor-1α [manufactured by Pepro Tech] were used.
(§8) Thereafter, the plate was washed with the buffer A, and enzyme-linked immunosorbent assay was performed in the same manner as that of the previous report [Kawashima, H. et al., J. Biol. Chem., 275, 35448-35456 (2000)]. Binding was determined by measuring absorbance at 620 nm using alkaline phosphatase-conjugated streptavidin and Blue Phos™ substrate. In FIG. 5, expression of an abscissa axis is the same as that of FIG. 4.

In another assay the target is T2, monomeric P-selectin (Homo sapiens, UniProt P16109).
T2 construct: purchased Genzyme-Techne
T2 sequence (P16109 42-771 limits assumed): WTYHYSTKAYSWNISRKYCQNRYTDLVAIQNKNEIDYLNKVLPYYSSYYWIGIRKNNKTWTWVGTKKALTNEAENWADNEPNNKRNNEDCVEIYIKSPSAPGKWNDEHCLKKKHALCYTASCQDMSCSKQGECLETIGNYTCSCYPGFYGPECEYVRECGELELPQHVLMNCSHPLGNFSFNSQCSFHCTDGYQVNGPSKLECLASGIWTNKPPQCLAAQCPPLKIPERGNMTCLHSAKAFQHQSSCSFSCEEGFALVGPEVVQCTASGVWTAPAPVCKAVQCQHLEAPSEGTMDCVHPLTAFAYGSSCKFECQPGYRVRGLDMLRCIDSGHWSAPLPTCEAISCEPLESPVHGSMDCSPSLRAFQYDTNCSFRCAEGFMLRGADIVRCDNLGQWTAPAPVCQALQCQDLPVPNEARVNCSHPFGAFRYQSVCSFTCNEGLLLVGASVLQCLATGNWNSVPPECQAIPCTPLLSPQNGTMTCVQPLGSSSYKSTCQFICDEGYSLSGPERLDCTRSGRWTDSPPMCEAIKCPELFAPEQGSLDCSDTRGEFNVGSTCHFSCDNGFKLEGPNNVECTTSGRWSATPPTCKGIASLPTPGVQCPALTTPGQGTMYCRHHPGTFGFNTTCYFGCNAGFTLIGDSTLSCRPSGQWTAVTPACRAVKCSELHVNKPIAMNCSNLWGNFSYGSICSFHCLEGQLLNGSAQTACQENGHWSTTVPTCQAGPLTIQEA
Put plainly: BIAcore surface plasmon resonance, immobilized glycosaminoglycan vs monomeric P-selectin. The format is binding. Conditions: for pKd / koff / kon: P-selectin, GAG immobilized, 25° C.; for interaction with immobilized glycosaminoglycan (sensorgram): monomeric P-selectin. Here is the method: as §1, §2, §3, §4, §5, §6

The test system of a further assay is P-selectin-Ig. Kind of assay: Binding inhibition assay (ELISA), biotinylated versican to P-selectin-Ig, various concentrations. The settings on record: dose-dependent, FIG. 2 panel B. Here is the method:
Inhibition assay of binding between versican and each of L-selectin, P-selectin and CD44 was performed as follows. First, each well on a 96 well flat bottom microtiter plate (Coster EIA/RIA plate No. 3690) was coated with L-selectin-Ig (3 μg/ml), P-selectin-Ig (4 μg/ml) or CD44-Ig (0.25 μg/ml) by a conventional procedure. […] The plate was incubated at room temperature for 2 hours. Thereafter, the plate was washed with the buffer A, and enzyme-linked immunosorbent assay was performed in the same manner as described in Kawashima, H. et al. [J. Biol. Chem., 275, 35448-35456 (2000)]. Binding was determined by measuring absorbance at 620 nm using alkaline phosphatase-conjugated streptavidin and Blue Phos™ substrate.

For another assay, the target named is T3, platelet factor 4 (Homo sapiens, UniProt P02776).
T3 sequence (P02776 32-101): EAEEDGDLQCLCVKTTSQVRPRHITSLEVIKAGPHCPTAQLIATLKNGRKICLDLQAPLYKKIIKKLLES
Kind of assay: ELISA, biotinylated versican binding to PF4 in presence of glycosaminoglycan. The settings on record: 100 μg/ml glycosaminoglycan; FIG. 5. Here is the method: as §7, §8

pKd: −log10 of the molar value.

T1 sequence (P02778 22-98): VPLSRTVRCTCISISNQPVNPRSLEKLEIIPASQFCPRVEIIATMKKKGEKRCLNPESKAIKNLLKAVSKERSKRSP

As for chondroitin polysulfate [CPS], the negative logarithm of the Kd (pKd) in assay [1] was 7.00; in assay [2] it was 7.14; on monomeric P-selectin it was 7.25. Also, the koff in assay [1] was determined as 0.00244 s⁻¹; in assay [2], 0.0023 s⁻¹; on monomeric P-selectin, 0.000759 s⁻¹. Besides, the kon in assay [1] was 24200 M⁻¹ s⁻¹; in assay [2], 31500 M⁻¹ s⁻¹; at monomeric P-selectin, 13400 M⁻¹ s⁻¹. Moreover, the “inhibition of binding between biotinylated versican and γ-interferon inducible protein-10” value in assay [3] is “inhibited”. Also, the “inhibition of binding between biotinylated versican and P-selectin-Ig” value in the assay with P-selectin-Ig is “inhibited”. The “inhibition of binding between biotinylated versican and platelet factor 4” value at platelet factor 4 is reported as “inhibited”.

With chondroitin sulfate A [CS A], the “interaction with immobilized glycosaminoglycan (sensorgram)” value (shortened to “interaction”) (in assay [1]; in assay [2]; at monomeric P-selectin) was “did not interact” throughout. The “inhibition of binding between biotinylated versican and P-selectin-Ig” value in the assay on P-selectin-Ig is on record as “not inhibited”.

In the case of chondroitin sulfate E [CS E], in assay [1], the “interaction” value is reported as “bound”, the pKd is 7.07, the koff came to 0.00356 s⁻¹ and the kon amounted to 41500 M⁻¹ s⁻¹. For the same substance, in assay [2], the “interaction” value is given as “bound”, the pKd was 6.89, the koff turned out to be 0.00211 s⁻¹ and the kon stood at 16200 M⁻¹ s⁻¹. Moreover, in assay [3], the “inhibition of binding between biotinylated versican and γ-interferon inducible protein-10” value is given as “inhibited”. Further, on monomeric P-selectin, the pKd is 7.53, the koff came to 0.00125 s⁻¹, the kon was 42100 M⁻¹ s⁻¹ and the “interaction” value is “bound”. The “inhibition of binding between biotinylated versican and P-selectin-Ig” value in the assay on P-selectin-Ig is “inhibited”. Further, at platelet factor 4, the “inhibition of binding between biotinylated versican and platelet factor 4” value is on record as “inhibited”.

Consider dermatan polysulfate [DPS], for which the pKd was 7.49 in assay [1] and 7.46 in assay [2]. For the same substance, the results for the koff (in assay [1]; in assay [2]; on monomeric P-selectin) were 0.000278 s⁻¹, 0.000923 s⁻¹ and 0.000664 s⁻¹, respectively. The kon was found to be 8640 M⁻¹ s⁻¹ in assay [1], 26400 M⁻¹ s⁻¹ in assay [2] and 24000 M⁻¹ s⁻¹ on monomeric P-selectin. In addition, the “inhibition of binding between biotinylated versican and γ-interferon inducible protein-10” value in assay [3] was “inhibited”. The “inhibition of binding between biotinylated versican and P-selectin-Ig” value with P-selectin-Ig is on record as “inhibited”. Moreover, the “inhibition of binding between biotinylated versican and platelet factor 4” value on platelet factor 4 is given as “inhibited”.
